Patent publication US11780854B2, “Prolyl hydroxylase domain-containing protein (PHD) inhibitors and uses thereof” (Insilico Medicine IP Limited, priority 2021, dated 2023)

Key:
[1] = molecular target: PHD2 (Homo sapiens (Human), UniProt Q9GZT9); assay: PHD2 Enzymatic Assay (AlphaScreen); assay type: biochemical; conditions: 30 min preincubation at RT
[2] = tested on: Hep3B cell; assay: EPO Elisa Assay in Hep3B cells; assay type: cell-based; conditions: Homo sapiens, 24 h at 37° C.

PHD2, sequence (Q9GZT9 whole entry): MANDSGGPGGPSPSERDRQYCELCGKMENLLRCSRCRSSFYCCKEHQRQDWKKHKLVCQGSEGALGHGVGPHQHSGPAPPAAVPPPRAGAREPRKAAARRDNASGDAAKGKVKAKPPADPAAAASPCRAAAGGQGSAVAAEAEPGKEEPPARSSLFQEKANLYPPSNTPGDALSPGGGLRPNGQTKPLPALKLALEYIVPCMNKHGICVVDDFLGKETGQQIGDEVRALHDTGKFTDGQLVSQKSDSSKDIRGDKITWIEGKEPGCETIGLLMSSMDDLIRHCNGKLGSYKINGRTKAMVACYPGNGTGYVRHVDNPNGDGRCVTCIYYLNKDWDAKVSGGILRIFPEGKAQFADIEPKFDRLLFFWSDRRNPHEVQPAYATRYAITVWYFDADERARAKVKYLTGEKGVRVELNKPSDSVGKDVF

Structure (SMILES) | IC50 [1] [µM] | EC50 [2] [µM]
CC(C)(C)OC(=O)N1C[C@@H]2CN(c3ccc4c(O)c(C(=O)NCc5ccc(C#N)nc5)ncc4n3)C[C@@H]2C1 [compound 117] | < 0.005 | 2.5 to 5
N#Cc1ccc(CNC(=O)c2ncc3nc(N4CC5CC4CO5)ccc3c2O)cn1 (centres unmarked) [compound 30] |  | 2.5 to 5
CC(C)(C)OC(=O)N[C@@H]1CN(c2ccc3c(O)c(C(=O)NCc4ccc(C#N)nc4)ncc3n2)CC12CC2 [compound 145] | < 0.005 | 10 to 100
N#Cc1ccc(CNC(=O)c2ncc3nc(N4C[C@@H]5C[C@H]4CN5C4CC4)ccc3c2O)cn1 [compound 80] | < 0.005 | < 2.5
N#Cc1ccc(CNC(=O)c2ncc3nc(N4C[C@H]5C[C@@H]4CO5)ccc3c2O)cn1 [compound 43] | < 0.005 | 2.5 to 5
N#Cc1ccc(CNC(=O)c2ncc3nc(N4CCC5(COC5)C4)ccc3c2O)cn1 [compound 25] | < 0.005 | < 2.5
N#Cc1ccc(CNC(=O)c2ncc3nc(N4C[C@@H]5C[C@H]4CN5C4CC4)ccc3c2O)c(Cl)c1 [compound 68] | 0.005 to 0.02 | < 2.5
N#Cc1ccc(CNC(=O)c2ncc3nc(N4C[C@H]5C[C@@H]4CN5C4CC4)ccc3c2O)c(Cl)c1 [compound 69] | 0.005 to 0.02 | 2.5 to 5
CC(C)(C)OC(=O)N1C[C@@H]2C[C@H]1CN2c1ccc2c(O)c(C(=O)NCc3ccc(C#N)nc3)ncc2n1 [compound 116] | < 0.005 | 10 to 100
N#Cc1ccc(CNC(=O)c2ncc3nc(N4C[C@@H]5C[C@H]4CO5)ccc3c2O)cn1 [compound 44] | < 0.005 | 2.5 to 5
CC(C)(C)OC(=O)N1CC2(C1)CN(c1ccc3c(O)c(C(=O)NCc4ccc(C#N)nc4)ncc3n1)C2 [compound 91] | < 0.005 | < 2.5
N#Cc1ccc(CNC(=O)c2ncc3nc(N4CCC5(COC5)C4)ccc3c2O)c(Cl)c1 [compound 8] | 0.005 to 0.02 | 2.5 to 5
CN1CCC2(CCN(c3ccc4c(O)c(C(=O)NCc5ccc(C#N)nc5)ncc4n3)CC2)C1=O [compound 67] | < 0.005 | 5 to 7.5
CC(C)(C)OC(=O)N1CCOC2(C1)CN(c1ccc3c(O)c(C(=O)NCc4ccc(C#N)nc4)ncc3n1)C2 [compound 118] | < 0.005 | 2.5 to 5
CN1C[C@@H]2C[C@H]1CN2c1ccc2c(O)c(C(=O)NCc3ccc(C#N)cc3Cl)ncc2n1 [compound 58] | < 0.005 | 10 to 100
